pIC50: −log10 of the molar value. Like-named read-outs stand apart in the source and are kept apart here.
What was measured:
[1] = molecular target: T1, TLR7 (Homo sapiens, UniProt Q9NYK1); assay: HEK293 TLR7/NFKb reporter cell assay with R848 agonist; type: cell-based; parameters: expressed in transfected cells; host or cells: HEK293
T1 sequence (Q9NYK1 27-1049): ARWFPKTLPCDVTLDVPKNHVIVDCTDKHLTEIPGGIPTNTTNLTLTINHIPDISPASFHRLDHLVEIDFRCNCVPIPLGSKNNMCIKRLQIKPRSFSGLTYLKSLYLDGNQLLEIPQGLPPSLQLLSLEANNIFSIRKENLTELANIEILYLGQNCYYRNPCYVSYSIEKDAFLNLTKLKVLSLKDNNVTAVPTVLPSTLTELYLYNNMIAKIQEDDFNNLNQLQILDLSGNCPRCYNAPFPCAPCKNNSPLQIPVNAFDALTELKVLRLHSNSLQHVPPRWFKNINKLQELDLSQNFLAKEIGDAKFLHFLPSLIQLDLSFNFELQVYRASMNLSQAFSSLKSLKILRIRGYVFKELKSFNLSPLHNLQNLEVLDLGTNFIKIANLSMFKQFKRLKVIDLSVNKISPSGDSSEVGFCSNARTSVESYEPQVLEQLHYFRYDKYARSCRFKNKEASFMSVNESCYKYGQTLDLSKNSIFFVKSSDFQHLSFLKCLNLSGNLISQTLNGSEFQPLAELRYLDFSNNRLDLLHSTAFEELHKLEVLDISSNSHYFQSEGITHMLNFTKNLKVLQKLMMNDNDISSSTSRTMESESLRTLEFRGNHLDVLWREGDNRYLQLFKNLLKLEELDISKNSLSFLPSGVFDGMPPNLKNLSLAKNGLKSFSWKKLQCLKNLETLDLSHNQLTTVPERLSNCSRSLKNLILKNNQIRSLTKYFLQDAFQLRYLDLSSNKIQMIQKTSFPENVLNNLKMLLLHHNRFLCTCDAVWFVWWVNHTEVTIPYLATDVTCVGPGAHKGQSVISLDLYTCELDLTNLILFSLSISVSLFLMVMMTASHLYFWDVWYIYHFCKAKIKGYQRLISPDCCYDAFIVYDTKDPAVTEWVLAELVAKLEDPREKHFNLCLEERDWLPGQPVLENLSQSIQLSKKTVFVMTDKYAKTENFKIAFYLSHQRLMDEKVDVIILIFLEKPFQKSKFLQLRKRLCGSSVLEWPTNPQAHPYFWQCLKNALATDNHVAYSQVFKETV
Procedure: Into 384 CulturePlates (Corning 3707) was placed 5000 c/w of HEK293 TLR7/NFKb reporter cells in 30 µL DMEM without phenol red and 10% i.a. FCS and 2 mM L-glutamine. The cells were incubated for 24 h at 37° C., 10% carbon dioxide and 90% relative humidity. 3 µL of controls, standards, and compounds were dispensed to wells, incubated for 30 min then 3 µL of R848 agonist (Resiquimod) in 20 mM HEPES buffer was added. After incubation for 5 hours, it was allowed to stand at room temperature for 15 min. 10 µL of Steady-Glo substrate reagent was added and assay plates were shaken for 5 min at 1500 rpm. The assay plate was allowed to sit for 30 min at room temperature and then read on an EnVision plate reader.

[2] = test system: complex primary human cell systems; assay: BioMAP Diversity PLUS phenotypic panel; type: cell-based; details: hydroxychloroquine at 33 µM versus Pyronaridine at 3.3 µM
Procedure: Pyronaridine was profiled in the BioMAP® Diversity PLUS (BioSeek LLC, South San Francisco, CA) panel comprised of a well characterized set of complex primary human cell systems at 10, 3.3, 1.1, and 0.3 µM. Pyronaridine was tested across 12 BioMAP® Systems containing early passage primary human cells cultured alone or as cocultures and stimulated with various proinflammatory or immunomodulatory stimuli. […] A BioMAP activity profile was generated based on the levels of various readout parameters including cytokines or growth factors, expression of surface molecules, and cell proliferation. […]
Differentiating biomarkers are defined when one profile has a readout outside of the significance envelope with an effect size > 20% (|log10 ratio| > 0.1), and the readout for the other profile is either inside the envelope or in the opposite direction.

pIC50 ([1]; Example 4 results table, assay/readout not specified, read-out: Potency)	pIC50 ([1]; HEK293 TLR7/NFKb reporter cells, R848 agonist, read-out: IC50 TLR7 (IL6 READOUT) HEK TRANSFECTED)	SMILES	BioMAP Diversity PLUS profile, overlay comparison [2]
> 6.00	5.30	COc1ccc2nc3cc(Cl)ccc3c(Nc3cc(CN4CCCC4)c(O)c(CN4CCCC4)c3)c2n1 [Compound 1, Pyronaridine]	–
–	–	CCN(CCO)CCCC(C)Nc1ccnc2cc(Cl)ccc12 (stereo not drawn) [HYDROXY-CHLOROQUINE HCQ, hydroxychloroquine]	noticeable similar pattern
